Source: patent US20110306671A1, “AMIDE DERIVATIVES OF ETHACRYNIC ACID” (The Regents of the The University of California, priority 2008, published 2011)
Several values for one entry are separate records, joined by “and”; a condition that tells them apart may be missing. Identical values can stand only once.

Assays:
[1] = test system: NFATc-mediated transcription; assay: NFAT reporter assay in HEK293 cells; type: cell-based, human; details: 50 μM EA, 24 hours
Method: FIG. 1. Inhibition of Wnt/β-catenin signaling by EA. […] Cells were lysed and luciferase activity was quantified. Total protein levels were determined by Bradford Assay and serve as a control for total cell number. (B) HEK293 cells were co-transfected with TOPflash reporter construct, along with expression plasmids for Wnt1, Wnt3, LRP6, Dvl and β-catenin as indicated. […] (C) HEK293 cells were transfected with FOPflash reporter with or without an expression plasmid for β-catenin. […] (D) HEK293 cells were transfected with NFAT reporter and expression plasmid for NFATc. […] The results are expressed as fold induction of luciferase activity compared to the basal level, and are the means of three experiments±SEM. For screening of the drug library, HEK293 cells were grown for at least 24 hours in 10 cm plates prior to transfection. At 50% confluence, cells were transfected with 5 μg of TOPflash reporter, 1 μg expression vector for Dvl, 1 μg of control plasmid pCMXβgal and carrier DNA pcDNA3 plasmid for a total of 10 μg/plate. After transfection for 24 hours, cells were harvested and dispersed in 96-well microtiter plates. […] Then luciferase values were determined. In the Results section, data are expressed as fold stimulation of luciferase activity compared to the basal level. […]

[2] = continuous i.v. infusion, cited from earlier work
[3] = target: T1, β-catenin (Homo sapiens, UniProt P35222); assay: Immunoprecipitation and immunoblotting with anti-EA antibody: β-catenin; type: binding
T1 construct: endogenous in cells
T1 sequence (P35222 whole entry): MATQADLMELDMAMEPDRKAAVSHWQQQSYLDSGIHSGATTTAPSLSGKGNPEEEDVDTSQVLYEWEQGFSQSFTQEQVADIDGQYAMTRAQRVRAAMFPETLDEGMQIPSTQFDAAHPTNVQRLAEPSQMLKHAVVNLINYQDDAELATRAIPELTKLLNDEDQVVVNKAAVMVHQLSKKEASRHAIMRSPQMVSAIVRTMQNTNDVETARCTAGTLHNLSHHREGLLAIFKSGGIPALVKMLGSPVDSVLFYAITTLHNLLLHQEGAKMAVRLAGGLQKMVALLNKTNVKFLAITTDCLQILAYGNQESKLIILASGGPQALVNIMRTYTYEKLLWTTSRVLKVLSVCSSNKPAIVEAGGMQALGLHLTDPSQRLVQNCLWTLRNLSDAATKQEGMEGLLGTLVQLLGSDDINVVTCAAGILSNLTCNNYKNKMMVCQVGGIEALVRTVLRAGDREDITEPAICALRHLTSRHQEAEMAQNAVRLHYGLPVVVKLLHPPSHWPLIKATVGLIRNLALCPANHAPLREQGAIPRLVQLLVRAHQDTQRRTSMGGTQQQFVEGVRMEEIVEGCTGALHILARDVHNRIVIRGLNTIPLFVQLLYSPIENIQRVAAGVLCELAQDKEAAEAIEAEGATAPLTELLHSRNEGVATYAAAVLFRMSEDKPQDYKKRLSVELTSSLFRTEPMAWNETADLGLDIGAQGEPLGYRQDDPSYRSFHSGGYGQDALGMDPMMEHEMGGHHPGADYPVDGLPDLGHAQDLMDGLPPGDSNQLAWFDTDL
Method: (§1) FIG. 6. EA binds to LEF-1 in primary CLL and SW480 cells. (A) lysates from CLL cells exposed to 10 μM EA for 8 hours or 24 hours were immunoprecipitated with anti-LEF-1 antibody. The immune complexes were analyzed by immunoblotting with anti-LEF-1 and anti-EA antibodies. (B) SW480 cells were treated with indicated amounts of EA for 16 hours. Cell lysates were immunoprecipitated with anti-β-catenin antibody (Santa Cruz Biotechnology, Santa Cruz, Calif.). The immune complexes were analyzed by immunoblotting with anti-EA and anti-β-catenin antibodies. (C) SW480 cells were exposed to 50 μM of EA for 16 hours and cell lysates were immunoprecipitated with anti-β-catenin antibody. The proteins in the immunoprecipitates were resolved by SDS-PAGE, transferred, and probed with indicated antibodies.
(§2) A conjugate of EA with Keyhole Limpet Hemocyanin (KLH, Sigma) was prepared by thiolation of KLH with N-succinimidyl S-acetylthioacetate (SATA), followed by allowing the SATA-KLH conjugate to form a Michael adduct with EA, as described in Hermanson (1996). Immunization of rabbits was performed by three 1 mL subcutaneous injections of approximately 0.4 mg EA-KLH conjugates. Complete Freund's adjuvant was used for the first injection. The second and third injections were performed 3 and 6 weeks after the first, using incomplete adjuvant. […]

[4] = target: T2, LEF-1 (Homo sapiens, UniProt Q9UJU2); assay: Immunoprecipitation and immunoblotting with anti-EA antibody: LEF-1; type: binding
T2 construct: endogenous in cells; host or cells: primary CLL cells from patients; SW480 cells
T2 sequence (Q9UJU2 whole entry): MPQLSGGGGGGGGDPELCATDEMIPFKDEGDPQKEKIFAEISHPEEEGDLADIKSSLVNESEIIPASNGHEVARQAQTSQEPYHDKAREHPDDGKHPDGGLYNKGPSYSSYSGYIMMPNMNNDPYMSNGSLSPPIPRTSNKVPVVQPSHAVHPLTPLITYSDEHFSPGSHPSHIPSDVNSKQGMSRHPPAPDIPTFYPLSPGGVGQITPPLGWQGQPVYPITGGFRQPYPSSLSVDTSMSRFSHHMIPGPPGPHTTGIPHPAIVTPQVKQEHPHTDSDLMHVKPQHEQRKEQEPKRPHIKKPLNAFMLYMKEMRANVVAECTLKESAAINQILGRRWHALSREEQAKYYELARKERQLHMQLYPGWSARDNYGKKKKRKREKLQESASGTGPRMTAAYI
Method: as §1, §2

C=C(CC)C(=O)c1ccc(OCC(=O)O)c(Cl)c1Cl [Compound 1, Ethacrynic acid]
effect on NFATc-mediated transcription from a NFAT reporter [1]: did not block
time for which plasma concentrations are sustained ([2]; above 1 μg/ml): up to 3 hours
sustained plasma concentrations ([2]; listed as EA): greater than 1 μg/ml and > 3.3 μM
binding to β-catenin ([3]; CLL extracts, data not shown): did not bind detectably
detection of precipitated β-catenin by anti-EA antibody ([3]; SW480 cells, 16 hours): could not be detected by anti-EA antibody
reaction of immunoprecipitated LEF-1 with anti-EA antibody ([4]; CLL lysates, EA 10 μM, 8 hours and 24 hours): reacted strongly with the anti-EA antibody
staining of the LEF-1 band with anti-EA antibody ([4]; SW480 cells, 50 μM EA, 16 hours, anti-β-catenin immunoprecipitate): stained positive with the anti-EA antibody only in the drug treated samples
